Minimal effective concentration data for 49 molecules are collected here from patent publication US6825350B2, “Sulfonamide and sulfamide substituted imidazoquinolines and methods for the treatment of periodontal disease using these and other immune response modifiers” (3M Innovative Properties Company, priority 1999, dated 2004).

Where two headings read alike, the source gives them in different places.

The test system of one assay is interferon (α). Description: Cytokine induction in human cells: interferon (α) by ELISA. It is filed as cell-based. As to conditions: human PBMCs, 18 to 24 hours incubation, ELISA of culture supernatant, read-out: Lowest Effective Concentration (μM) Interferon. A general note: ELISA stands for enzyme-linked immunosorbent assay.
Assay [1] relates to tumor necrosis factor (α). Description: Cytokine induction in human cells: tumor necrosis factor (α) by ELISA. It counts as cell-based. As to conditions: human PBMCs, 18 to 24 hours incubation, ELISA of culture supernatant, read-out: Lowest Effective Concentration (μM) Tumor Necrosis Factor.

Consider `CCCCCCCCS(=O)(=O)NCCCCn1cnc2c(N)nc3c(c21)CCCC3` [Example 56], for which the minimal effective concentration is greater than 30 µM in the assay with interferon (α) (Homo sapiens, PBMC) and greater than 30 µM in assay [1] (Homo sapiens, PBMC).
For `Nc1nc2c(c3c1ncn3CCCCNS(=O)(=O)c1cccs1)CCCC2` [Example 57], the minimal effective concentration in the assay with interferon (α) (Homo sapiens, PBMC) was 3.33 µM; in assay [1] (Homo sapiens, PBMC) it was greater than 30 µM.
In the same order, the values of `Nc1nc2c(c3c1ncn3CCCCNS(=O)(=O)c1ccccc1)CCCC2` [Example 58] are 3.33 µM and greater than 30 µM.
The like results for `Nc1nc2c(c3c1ncn3CCCCNS(=O)(=O)c1ccc(Cl)cc1)CCCC2` [Example 59] were, in that order, 3.33 µM and greater than 30 µM.
`Nc1nc2c(c3c1ncn3CCCCNS(=O)(=O)c1ccc(Cl)c(Cl)c1)CCCC2` [Example 60]: the minimal effective concentration in the assay with interferon (α) (Homo sapiens, PBMC) was greater than 30 µM; in assay [1] (Homo sapiens, PBMC), greater than 30 µM.
For `Nc1nc2c(c3c1ncn3CCCCNS(=O)(=O)c1ccc(I)cc1)CCCC2` [Example 61], the minimal effective concentration was 3.33 µM in the assay with interferon (α) (Homo sapiens, PBMC) and greater than 30 µM in assay [1] (Homo sapiens, PBMC).
In the same order, the values of `CC(C)(C)c1ccc(S(=O)(=O)NCCCCn2cnc3c(N)nc4c(c32)CCCC4)cc1` [Example 62] are greater than 30 µM and greater than 30 µM.
The like results for `Cc1cc(C)c(S(=O)(=O)NCCCCn2cnc3c(N)nc4c(c32)CCCC4)c(C)c1` [Example 63] were, in that order, greater than 30 µM and greater than 30 µM.
The like results for `Cc1ccc(S(=O)(=O)NCCCCn2cnc3c(N)nc4c(c32)CCCC4)cc1` [Example 64] were, in that order, 3.33 µM and greater than 30 µM.
On to `COc1ccc(S(=O)(=O)NCCCCn2cnc3c(N)nc4c(c32)CCCC4)cc1` [Example 65], for which the minimal effective concentration with interferon (α) (Homo sapiens, PBMC) was 3.33 µM; in assay [1] (Homo sapiens, PBMC) it was greater than 30 µM.
The like results for `COc1ccc(Br)cc1S(=O)(=O)NCCCCn1cnc2c(N)nc3c(c21)CCCC3` [Example 66] were, in that order, greater than 30 µM and 30 µM.
The like results for `Nc1nc2c(c3c1ncn3CCCCNS(=O)(=O)Cc1ccccc1)CCCC2` [Example 67] were, in that order, 10 µM and greater than 30 µM.
The like results for `Nc1nc2c(c3c1ncn3CCCCNS(=O)(=O)/C=C/c1ccccc1)CCCC2` [Example 68] were, in that order, 10 µM and greater than 30 µM.
Take `Nc1nc2c(c3c1ncn3CCCCNS(=O)(=O)c1cccc3cccnc13)CCCC2` [Example 69]: the minimal effective concentration was 10 µM with interferon (α) (Homo sapiens, PBMC) and greater than 30 µM in assay [1] (Homo sapiens, PBMC).
As for `Nc1nc2c(c3c1ncn3CCCCNS(=O)(=O)c1cccc3ccccc13)CCCC2` [Example 70], the minimal effective concentration in the assay with interferon (α) (Homo sapiens, PBMC) is greater than 30 µM; in assay [1] (Homo sapiens, PBMC), greater than 30 µM.
Take `CN(C)c1cccc2c(S(=O)(=O)NCCCCn3cnc4c(N)nc5c(c43)CCCC5)cccc12` [Example 71]: the minimal effective concentration with interferon (α) (Homo sapiens, PBMC) is greater than 30 µM; in assay [1] (Homo sapiens, PBMC), 30 µM.
`CCCCc1nc2c(N)nc3ccccc3c2n1CCCCNS(=O)(=O)C[C@]12CC[C@H](CC1=O)C2(C)C` [Example 73]: the minimal effective concentration came to 0.001 µM with interferon (α) (Homo sapiens, PBMC) and 0.1 µM in assay [1] (Homo sapiens, PBMC).
The like results for `CCCCc1nc2c(N)nc3ccccc3c2n1CCCCNS(=O)(=O)CCCC` [Example 74] were, in that order, 0.001 µM and 0.01 µM.
In the same order, the values of `CCCCCCCCCCCCCCCCS(=O)(=O)NCCCCn1c(CCCC)nc2c(N)nc3ccccc3c21` [Example 75] are greater than 10 µM and greater than 10 µM.
In the same order, the values of `CCCCc1nc2c(N)nc3ccccc3c2n1CCCCNS(=O)(=O)c1c(C(C)C)cc(C(C)C)cc1C(C)C` [Example 76] are greater than 10 µM and greater than 10 µM.
On to `CCCCc1nc2c(N)nc3ccccc3c2n1CCCCNS(=O)(=O)c1sc(NC(C)=O)nc1C` [Example 77], for which the minimal effective concentration in the assay with interferon (α) (Homo sapiens, PBMC) was determined as 0.001 µM; in assay [1] (Homo sapiens, PBMC), 1 µM.
The like results for `CCCCc1nc2c(N)nc3ccccc3c2n1CCCCNS(=O)(=O)c1ccccc1Br` [Example 78] were, in that order, 0.001 µM and 0.1 µM.
On to `CCCCc1nc2c(N)nc3ccccc3c2n1CCCCNS(=O)(=O)c1ccc(C(F)(F)F)cc1[N+](=O)[O-]` [Example 79], for which the minimal effective concentration in the assay on interferon (α) (Homo sapiens, PBMC) is 0.01 µM; in assay [1] (Homo sapiens, PBMC) it was 1 µM.
The like results for `CCCCc1nc2c(N)nc3ccccc3c2n1CCCCNS(=O)(=O)c1cccc(C(F)(F)F)c1` [Example 80] were, in that order, 1 µM and 10 µM.
The like results for `CCCCc1nc2c(N)nc3ccccc3c2n1CCCCNS(=O)(=O)c1ccc(OC)c(OC)c1` [Example 81] were, in that order, 0.001 µM and 1 µM.
The like results for `CCCCc1nc2c(N)nc3ccccc3c2n1CCCCNS(=O)(=O)CCCCl` [Example 82] were, in that order, 0.001 µM and 1 µM.
On to `CCCCc1nc2c(N)nc3ccccc3c2n1CCCCNS(=O)(=O)c1cccc([N+](=O)[O-])c1` [Example 83], for which the minimal effective concentration was found to be 0.001 µM with interferon (α) (Homo sapiens, PBMC) and 1 µM in assay [1] (Homo sapiens, PBMC).
With `CCCCc1nc2c(N)nc3ccccc3c2n1CCCCNS(=O)(=O)c1ccc(C(=O)O)cc1` [Example 84], the minimal effective concentration turned out to be 1 µM with interferon (α) (Homo sapiens, PBMC) and 10 µM in assay [1] (Homo sapiens, PBMC).
Turning to `CCCCc1nc2c(N)nc3ccccc3c2n1CCCCNS(=O)(=O)c1ccc(OC(F)(F)F)cc1` [Example 85], the minimal effective concentration with interferon (α) (Homo sapiens, PBMC) is 1 µM; in assay [1] (Homo sapiens, PBMC) it was greater than 10 µM.
The like results for `CCCCc1nc2c(N)nc3ccccc3c2n1CCCCNS(=O)(=O)c1ccc(Cl)c([N+](=O)[O-])c1` [Example 86] were, in that order, 0.01 µM and 1 µM.
Turning to `CCCCc1nc2c(N)nc3ccccc3c2n1CCCCNS(=O)(=O)c1ccc(F)cc1` [Example 87], the minimal effective concentration amounted to 0.001 µM in the assay with interferon (α) (Homo sapiens, PBMC) and 1 µM in assay [1] (Homo sapiens, PBMC).
As for `CCCCc1nc2c(N)nc3ccccc3c2n1CCCCNS(=O)(=O)c1ccc([N+](=O)[O-])cc1` [Example 88], the minimal effective concentration in the assay on interferon (α) (Homo sapiens, PBMC) was 0.01 µM; in assay [1] (Homo sapiens, PBMC) it was 1 µM.
The like results for `CCCCc1nc2c(N)nc3ccccc3c2n1CCCCNS(=O)(=O)C[C@]12CC[C@@H](CC1=O)C2(C)C` [Example 89] were, in that order, 0.001 µM and 1 µM.
In the case of `CCCCc1nc2c(N)nc3ccccc3c2n1CCCCNS(=O)(=O)c1c(F)c(F)c(F)c(F)c1F` [Example 90], the minimal effective concentration worked out at 0.01 µM in the assay on interferon (α) (Homo sapiens, PBMC) and 1 µM in assay [1] (Homo sapiens, PBMC).
Regarding `CCCCc1nc2c(N)nc3ccccc3c2n1CCCCNS(=O)(=O)c1ccccc1OC(F)(F)F` [Example 91], the minimal effective concentration is 0.01 µM with interferon (α) (Homo sapiens, PBMC) and 1 µM in assay [1] (Homo sapiens, PBMC).
In the same order, the values of `CCCCc1nc2c(N)nc3ccccc3c2n1CCCCNS(=O)(=O)c1ccc(Cl)cc1Cl` [Example 92] are 0.1 µM and 10 µM.
In the same order, the values of `CCCCc1nc2c(N)nc3ccccc3c2n1CCCCNS(=O)(=O)c1c(F)cccc1F` [Example 93] are 0.001 µM and 0.1 µM.
The like results for `CCCCc1nc2c(N)nc3ccccc3c2n1CCCCNS(=O)(=O)c1c(C)noc1C` [Example 94] were, in that order, 0.001 µM and 1 µM.
As to `CCCCc1nc2c(N)nc3ccccc3c2n1CCCCNS(=O)(=O)c1cccc(F)c1` [Example 95], the minimal effective concentration in the assay on interferon (α) (Homo sapiens, PBMC) was determined as 0.001 µM; in assay [1] (Homo sapiens, PBMC) it was 1 µM.
The like results for `CCCCc1nc2c(N)nc3ccccc3c2n1CCCCNS(=O)(=O)c1ccc(-c2ccccc2)cc1` [Example 96] were, in that order, 1 µM and greater than 10 µM.
With `CCCCc1nc2c(N)nc3ccccc3c2n1CCCCNS(=O)(=O)c1ccc(C)c([N+](=O)[O-])c1` [Example 97], the minimal effective concentration stood at 0.1 µM in the assay with interferon (α) (Homo sapiens, PBMC) and 10 µM in assay [1] (Homo sapiens, PBMC).
Consider `CCCCc1ccc(S(=O)(=O)NCCCCn2c(CCCC)nc3c(N)nc4ccccc4c32)cc1` [Example 98], for which the minimal effective concentration was 1 µM with interferon (α) (Homo sapiens, PBMC) and greater than 10 µM in assay [1] (Homo sapiens, PBMC).
In the same order, the values of `CCCCc1nc2c(N)nc3ccccc3c2n1CCCCNS(=O)(=O)c1ccc(Br)s1` [Example 99] are 0.1 µM and 10 µM.
With `CCCCc1nc2c(N)nc3ccccc3c2n1CCCCNS(=O)(=O)c1cc(Cl)ccc1OC` [Example 100], the minimal effective concentration was found to be 0.01 µM with interferon (α) (Homo sapiens, PBMC) and 10 µM in assay [1] (Homo sapiens, PBMC).
In the same order, the values of `CCCCc1nc2c(N)nc3ccccc3c2n1CCCCNS(=O)(=O)c1ccc(Cl)s1` [Example 101] are 0.01 µM and 10 µM.
Consider `CCCCc1nc2c(N)nc3ccccc3c2n1CCCCNS(=O)(=O)c1ccc2c(c1)CN(C(=O)C(F)(F)F)CC2` [Example 102], for which the minimal effective concentration stood at 0.001 µM in the assay with interferon (α) (Homo sapiens, PBMC) and 10 µM in assay [1] (Homo sapiens, PBMC).
With `CCCCc1nc2c(N)nc3ccccc3c2n1CCCCNS(=O)(=O)c1ccccc1C(F)(F)F` [Example 103], the minimal effective concentration was 0.1 µM in the assay with interferon (α) (Homo sapiens, PBMC) and 10 µM in assay [1] (Homo sapiens, PBMC).
On to `CCCCc1nc2c(N)nc3ccccc3c2n1CCCCNS(=O)(=O)c1cccc(OC)c1` [Example 104], for which the minimal effective concentration is 0.01 µM with interferon (α) (Homo sapiens, PBMC) and greater than 10 µM in assay [1] (Homo sapiens, PBMC).
As to `CCCCc1nc2c(N)nc3ccccc3c2n1CCCCNS(=O)(=O)c1cc(Br)ccc1OC` [Example 105], the minimal effective concentration with interferon (α) was determined as 1 µM; in assay [1], 10 µM.
